Test results from PubChem BioAssay (NCI).
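Values below derive from 48-hour exposures of cells grown in 96-well plates, with endpoints linearly interpolated between the two concentrations bracketing the appropriate inhibition level. The concentration for full growth arrest is given as TGI.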

Tests used:
Assay in all cases: DTP human tumour cell line panel, 48 h
[1] = system: UACC-257 melanoma
[2] = system: NCI-H226 lung
[3] = system: SF-268 CNS
[4] = system: OVCAR-3 ovarian
[5] = system: NCI-H522 lung
[6] = system: OVCAR-4 ovarian
[7] = system: CAKI-1 renal
[8] = system: HS 578T breast
[9] = system: HOP-62 NSCLC
[10] = system: PC-3 prostate
[11] = system: SK-MEL-5 melanoma
[12] = system: COLO 205 colon
[13] = system: SNB-19 CNS
[14] = system: U251 CNS
[15] = system: MALME-3M melanoma
[16] = system: CCRF-CEM leukemia
[17] = system: HCT-116 colon
[18] = system: A498 renal
[19] = system: RXF 393 renal
[20] = system: SN12C renal
[21] = system: MDA-MB-435
[22] = system: MOLT-4 leukemia
[23] = system: T-47D breast
[24] = system: SK-MEL-2 melanoma
[25] = system: SK-MEL-28 melanoma
[26] = system: MCF7 breast
[27] = system: NCI-H23 lung
[28] = system: A549 NSCLC
[29] = system: HL-60(TB) leukemia
[30] = system: SW-620 colon
[31] = system: HT29 colon
[32] = system: KM12 colon
[33] = system: OVCAR-8 ovarian
[34] = system: MDA-MB-231 breast
[35] = system: TK-10 renal
[36] = system: M14 melanoma
[37] = system: UACC-62 melanoma
[38] = system: EKVX NSCLC
[39] = system: ACHN renal
[40] = system: DU-145 prostate
[41] = system: LOX IMVI melanoma
[42] = system: NCI-H460 lung
[43] = system: SF-295 CNS
[44] = system: IGROV1 ovarian
[45] = system: NCI/ADR-RES ovarian
[46] = system: K-562 leukemia
[47] = system: MDA-N
[48] = system: UO-31 renal
[49] = system: RPMI-8226 leukemia
[50] = system: BT-549 breast
[51] = system: HCT-15 colon
[52] = system: OVCAR-5 ovarian
[53] = system: 786-0 renal
[54] = system: SF-539 CNS
[55] = system: SK-OV-3 ovarian
[56] = system: SNB-75 CNS

## C1#Cc2ccccc2OCCOc2ccccc2C#Cc2ccccc2OCCOc2ccccc21
[1]
  TGI: > 100 µM
[2]
  TGI: 38.3 µM
[3]
  TGI: 46.3 µM
[4]
  TGI: 39.3 µM
[5]
  TGI: 49.8 µM
[6]
  TGI: 30.6 µM
[7]
  TGI: 40.7 µM
[8]
  TGI: 64.3 µM
[9]
  TGI: 23.2 µM
[10]
  TGI: > 100 µM
[11]
  TGI: 58.7 µM
[12]
  TGI: > 100 µM
[13]
  TGI: > 100 µM
[14]
  TGI: 28.1 µM
[15]
  TGI: 73 µM
[16]
  TGI: 36.3 µM
[17]
  TGI: > 100 µM
[18]
  TGI: 37.8 µM
[19]
  TGI: 35.4 µM
[20]
  TGI: > 100 µM
[21]
  TGI: > 100 µM
[22]
  TGI: 31.3 µM
[23]
  TGI: > 100 µM
[24]
  TGI: > 100 µM
[25]
  TGI: > 100 µM
[26]
  TGI: > 100 µM
[27]
  TGI: 34.8 µM
[28]
  TGI: > 100 µM
[29]
  TGI: > 100 µM
[30]
  TGI: > 100 µM
[31]
  TGI: > 100 µM
[32]
  TGI: > 100 µM
[33]
  TGI: 28.3 µM
[34]
  TGI: 54.9 µM
[35]
  TGI: > 100 µM
[36]
  TGI: > 100 µM
[37]
  TGI: > 100 µM
[38]
  TGI: 98.9 µM
[39]
  TGI: 37.9 µM
[40]
  TGI: > 100 µM
[41]
  TGI: 33.4 µM
[42]
  TGI: > 100 µM
[43]
  TGI: > 100 µM
[44]
  TGI: 41.5 µM
[45]
  TGI: > 100 µM
[46]
  TGI: 24.3 µM
[47]
  TGI: > 100 µM
[48]
  TGI: > 100 µM
[49]
  TGI: 42.4 µM
[50]
  TGI: 81.9 µM
[51]
  TGI: > 100 µM
[52]
  TGI: 65.2 µM
[53]
  TGI: 28.8 µM

## CCc1nn(S(=O)(=O)c2ccc(C)cc2)c2c1CS(=O)(=O)CC2
[1]
  TGI: > 100 µM
[3]
  TGI: > 100 µM
[4]
  TGI: > 100 µM
[6]
  TGI: > 100 µM
[54]
  TGI: > 100 µM
[7]
  TGI: > 100 µM
[8]
  TGI: 87.7 µM
[9]
  TGI: > 100 µM
[10]
  TGI: > 100 µM
[11]
  TGI: > 100 µM
[12]
  TGI: > 100 µM
[13]
  TGI: > 100 µM
[14]
  TGI: > 100 µM
[17]
  TGI: > 100 µM
[18]
  TGI: > 100 µM
[19]
  TGI: > 100 µM
[20]
  TGI: > 100 µM
[21]
  TGI: > 100 µM
[22]
  TGI: > 100 µM
[23]
  TGI: > 100 µM
[24]
  TGI: > 100 µM
[25]
  TGI: > 100 µM
[26]
  TGI: > 100 µM
[27]
  TGI: > 100 µM
[28]
  TGI: > 100 µM
[30]
  TGI: > 100 µM
[55]
  TGI: > 100 µM
[31]
  TGI: > 100 µM
[32]
  TGI: > 100 µM
[33]
  TGI: > 100 µM
[34]
  TGI: > 100 µM
[35]
  TGI: > 100 µM
[36]
  TGI: > 100 µM
[56]
  TGI: > 100 µM
[37]
  TGI: > 100 µM
[38]
  TGI: > 100 µM
[39]
  TGI: > 100 µM
[40]
  TGI: > 100 µM
[42]
  TGI: > 100 µM
[43]
  TGI: > 100 µM
[45]
  TGI: > 100 µM
[46]
  TGI: > 100 µM
[47]
  TGI: > 100 µM
[48]
  TGI: > 100 µM
[49]
  TGI: > 100 µM
[50]
  TGI: > 100 µM
[51]
  TGI: > 100 µM
[52]
  TGI: > 100 µM
[53]
  TGI: > 100 µM
